Like-named read-outs stand apart in the source and are kept apart here.
Assays:
[1] = test system: tau phosphorylation; experiment: Inhibitory activity on tau phosphorylation in vivo (pS396 Western blot of cortex); set-up: species or system male CD-1 mice; settings: 10 mg/kg p.o., cortex removed after 1 hour, pS396 antibody; ** means statistically significant
Procedure: Experiment 7 : Inhibitory activity on tau phosphorylation in vivo
Test compound was administrated to male CD-1 mice of 5-6 weeks weighing 25-35 g (Charles River Japan, inc.) at 10 mg/kg p.o. (0.5% polyethylene glycol sorbitan monolaurate 80 (Tween80)/water suspension) and after 1 hour, mice were decapitated and cortex was promptly removed, followed by being frozen in liquid nitrogen. […] Protein concentrations were determined using DC protein assay kit (BIO-RAD). Supernatants were diluted with sample buffer (62.5 mM Tris-HCl, 25% glycerol, 2% SDS, 0.01% Bromophenol Blue, pH 6.8) to adjust the protein concentrations around […] and then boiled for 5 minutes. Samples (10 µ g) were separated on 10% sodium dodecyl sulfate-polyacrylamide electrophoresis (SDS-PAGE) mini slab gels and transferred onto polyvinylidene difluoride (PVDF) membranes. Membranes were incubated with phosphate buffered saline (PBS) containing 5% non-fat milk for 1 hour at room temperature and then probed with pS396 anti-body (BIOSOURCE) over night at 4 °C. Anti-rabbit IgG horseradish peroxidase (HRP) conjugated antibody (Promega) was used as secondary antibody. Membranes were visualized by Enhanced ChemiLuminescence (ECL) kit (Amersham Bioscience) and detected by LAS 1000 (Fuji Photo Film).

[2] = test system: normal mice; experiment: Object recognition (OR) test of episodic memory in normal mice; type: in vivo; settings: for minimal effective dose: Mus musculus, po
[3] = test system: scopolamine-treated mice; experiment: Object recognition (OR) test of episodic memory in scopolamine-treated mice; settings: for recognition index (RI): scopolamine 1 mg/kg 30 minutes before acquisition, 3 hours inter-trial interval

SMILES: Cc1nc(-c2ccc([C@H]3CN(c4nc(-c5ccncn5)cc(=O)n4C)CCO3)cc2)no1 [Compound of the present invention]
- in vivo 10 mg/kg, % phosphorylation against vehicle [1]: 58.14** %
- recognition index (RI) ([2]; 1 mg/kg p.o. 1 hour before acquisition and retention sessions, 24 hours inter-trial interval): 50.3%
- recognition index (RI) ([2]; 3 mg/kg p.o. 1 hour before acquisition and retention sessions, 24 hours inter-trial interval): 52.6%
- recognition index (RI) ([2]; 3 mg/kg p.o. once immediately after the acquisition phase, 24 hours inter-trial interval): 54.6%
- recognition index (RI) ([2]; 10 mg/kg p.o. 1 hour before acquisition and retention sessions, 24 hours inter-trial interval): 60.4%
- recognition index (RI) ([2]; 10 mg/kg p.o. once immediately after the acquisition phase, 24 hours inter-trial interval): 58.6%
- recognition index (RI) ([2]; 30 mg/kg p.o. 1 hour before acquisition and retention sessions, 24 hours inter-trial interval): 62.9%
- recognition index (RI) ([2]; 30 mg/kg p.o. once immediately after the acquisition phase, 24 hours inter-trial interval): 60.0%
- minimal effective dose ([2]; normal mice, summary, read-out: minimal effective dose, increases episodic memory and consolidates episodic memory trace): 10 mg/kg
- minimal effective dose ([2]; p.o. 1 hour before acquisition and retention sessions, 24 hours inter-trial interval, read-out: dose from which memory performance increased significantly): ≥ 10 mg/kg
- minimal effective dose ([2]; p.o. once immediately after the acquisition phase, read-out: minimal effective dose, consolidation of episodic memory): 10 mg/kg
- recognition index (RI) ([2]; normal mice of the scopolamine experiment, 10 mg/kg p.o. 1 hour before acquisition, 3 hours inter-trial interval): 61.7%
- recognition index (RI) ([2]; normal mice of the scopolamine experiment, 30 mg/kg p.o. 1 hour before acquisition, 3 hours inter-trial interval): 59.7%
- minimal effective dose ([3]; Mus musculus, po, read-out: Minimal Effective Dose, prevention of episodic memory deficits): 10 mg/kg
- recognition index (RI) ([3]; 10 mg/kg p.o. 1 hour before acquisition): 52.7%
- recognition index (RI) ([3]; 30 mg/kg p.o. 1 hour before acquisition): 60.4%
- effect on episodic memory deficits induced by scopolamine ([3]; single oral administration 3mg/kg): ineffective
- effect on episodic memory deficits induced by scopolamine ([3]; single oral administration 10 mg/kg, 30 minutes before scopolamine, 1 hour before acquisition): totally reversed

SMILES: Cn1c(N2CCOC(c3nc(-c4ccccc4)no3)C2)nc(-c2ccncn2)cc1=O (centres unmarked) [compound 1]
- in vivo 10 mg/kg, % phosphorylation against vehicle [1]: 92.12%

SMILES: Cn1c(N2CCOC(c3noc(-c4ccccc4)n3)C2)nc(-c2ccncn2)cc1=O (centres unmarked) [compound 2, 1-Methyl-2-[2-(5-phenyl-[1,2,4]oxadiazol-3-yl)-morpholin-4-yl]-1H-[4,4']bipyrimidinyl-6-one]
- in vivo 10 mg/kg, % phosphorylation against vehicle [1]: 79.21%

SMILES: Cn1c(N2CCOC(c3ccc(-c4ccoc4)cc3)C2)nc(-c2ccncn2)cc1=O (centres unmarked) [compound 3, 2-[2-(4-Furan-3-yl-phenyl)-morpholin-4-yl]-1-methyl-1H-[4,4']bipyrimidinyl-6-one]
- in vivo 10 mg/kg, % phosphorylation against vehicle [1]: 71.44%

SMILES: Cn1ccnc1-c1ccc(C2CN(c3nc(-c4ccncn4)cc(=O)n3C)CCO2)cc1 (centres unmarked) [compound 4, 1-Methyl-2-{2-[4-(1-methyl-1H-imidazol-2-yl)-phenyl]-morpholin-4-yl}-1H-[4,4']bipyrimidinyl-6-one]
- in vivo 10 mg/kg, % phosphorylation against vehicle [1]: 71.21%

SMILES: Cn1c(N2CCOC(c3ccc(-n4cccn4)cc3)C2)nc(-c2ccncn2)cc1=O (centres unmarked) [compound 5, 1-Methyl-2-[2-(4-pyrazol-1-yl-phenyl)-morpholin-4-yl]-1H-[4,4']bipyrimidinyl-6-one]
- in vivo 10 mg/kg, % phosphorylation against vehicle [1]: 53.35** %
